The values that follow come from article PMC6451765 (Journal of biomolecular structure & dynamics, 2013).

This test has as its target 5-HT2B (Homo sapiens, UniProt P41595). Type of test: binding.

Sequence of 5-HT2B (P41595 whole entry): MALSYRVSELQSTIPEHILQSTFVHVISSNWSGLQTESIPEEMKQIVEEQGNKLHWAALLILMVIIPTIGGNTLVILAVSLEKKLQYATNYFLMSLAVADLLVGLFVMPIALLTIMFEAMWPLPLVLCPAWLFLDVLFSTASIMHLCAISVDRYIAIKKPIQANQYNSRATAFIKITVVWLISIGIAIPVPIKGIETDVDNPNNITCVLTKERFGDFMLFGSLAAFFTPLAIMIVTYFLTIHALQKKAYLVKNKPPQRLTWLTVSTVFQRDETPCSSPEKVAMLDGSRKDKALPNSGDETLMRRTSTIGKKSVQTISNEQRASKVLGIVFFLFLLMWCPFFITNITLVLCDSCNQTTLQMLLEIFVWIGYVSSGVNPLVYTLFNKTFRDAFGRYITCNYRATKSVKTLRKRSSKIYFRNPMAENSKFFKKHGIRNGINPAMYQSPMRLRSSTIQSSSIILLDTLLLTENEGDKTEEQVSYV

`FC(F)OC(Cl)C(F)(F)F` (centres unmarked) [I, isoflurane] displayed a Ki of 7.78 µM.

Molecule `CC(C)c1cccc(C(C)C)c1O` [P, propofol] had a Ki of 0.95 µM.
